Patent US12473289B2, “Heterocyclic compounds as delta-5 desaturase inhibitors and methods of use” (Amgen Inc., priority 2019, dated 2025)

biological target: Delta-5-Desaturase (D5D) (Homo sapiens (Human), UniProt O60427); assay: In vitro measurement of Delta-5-Desaturase inhibitory activity using DGLA-CoA and Arachidonyl-CoA mass spectrometric assays; format: biochemical; conditions: membrane preparations of D5D-overexpressing HEK293 6E cells; averaged over at least two independent runs
Method in brief: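 Membranes from D5D-overexpressing HEK293 6E cells (10 μg/mL final) in Tris pH 7.5 with MgCl2, octyl glucoside and TCEP were mixed 1:1 with substrate solution (0.01 mM DGLA, 0.25 mM NADH, 0.25 mM ATP, 0.05 mM CoA) for 1 h at ambient temperature. RapidFire SPE-MS/MS MRM; IC50 by 4-parameter fit, ≥2 runs.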

Sequence of Delta-5-Desaturase (D5D) (O60427 whole entry, species assumed): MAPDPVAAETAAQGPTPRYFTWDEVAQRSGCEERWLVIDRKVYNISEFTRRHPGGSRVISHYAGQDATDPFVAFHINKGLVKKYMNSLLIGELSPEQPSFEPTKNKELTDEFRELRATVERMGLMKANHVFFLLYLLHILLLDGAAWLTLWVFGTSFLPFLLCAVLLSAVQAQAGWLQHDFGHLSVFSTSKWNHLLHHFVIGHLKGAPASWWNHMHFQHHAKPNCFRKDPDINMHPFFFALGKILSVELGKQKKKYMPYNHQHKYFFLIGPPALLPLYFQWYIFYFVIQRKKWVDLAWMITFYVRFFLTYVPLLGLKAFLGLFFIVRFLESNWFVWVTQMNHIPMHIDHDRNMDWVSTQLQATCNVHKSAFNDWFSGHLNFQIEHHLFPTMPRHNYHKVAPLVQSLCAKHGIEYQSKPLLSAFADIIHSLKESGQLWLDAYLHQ

SMILES	IC50
CNC(=O)c1ccn2c(=O)c(-c3ccc(OCC(F)(F)F)cc3)c(C(F)(F)F)nc2c1 [Example 12-1, N-Methyl-4-oxo-3-(4-(2,2,2-trifluoroethoxy)phenyl)-2-(trifluoromethyl)-4H-pyrido[1,2-a]pyrimidine-8-carboxamide]	120 nM
NC(=O)c1ccn2c(=O)c(-c3ccc(OCC(F)(F)F)cc3)c(C(F)(F)F)nc2c1 [Example 12-2, 4-oxo-3-(4-(2,2,2-trifluoroethoxy)phenyl)-2-(trifluoromethyl)-4H-pyrido[1,2-a]pyrimidine-8-carboxamide]	5.2 nM
CN(C)C(=O)c1ccn2c(=O)c(-c3ccc(OCC(F)(F)F)cc3)c(C(F)(F)F)nc2c1 [Example 12-3, N,N-dimethyl-4-oxo-3-(4-(2,2,2-trifluoroethoxy)phenyl)-2-(trifluoromethyl)-4H-pyrido[1,2-a]pyrimidine-8-carboxamide]	2540 nM
CCNC(=O)c1ccn2c(=O)c(-c3ccc(OCC(F)(F)F)cc3)c(C(F)(F)F)nc2c1 [Example 12-4, N-ethyl-4-oxo-3-(4-(2,2,2-trifluoroethoxy)phenyl)-2-(trifluoromethyl)-4H-pyrido[1,2-a]pyrimidine-8-carboxamide]	685 nM
CNC(=O)c1ccn2c(=O)c(-c3cnn(CC(F)(F)C(F)(F)F)c3)c(C(F)(F)F)nc2c1 [Example 12-5, N-methyl-4-oxo-3-(1-(2,2,3,3,3-pentafluoropropyl)-1H-pyrazol-4-yl)-2-(trifluoromethyl)-4H-pyrido[1,2-a]pyrimidine-8-carboxamide]	313 nM
O=c1c(-c2cnn(CC(F)(F)C(F)(F)F)c2)c(C(F)(F)F)nc2cc(CF)ccn12 [Example 13-2, 8-(fluoromethyl)-3-(1-(2,2,3,3,3-pentafluoropropyl)-1H-pyrazol-4-yl)-2-(trifluoromethyl)-4H-pyrido[1,2-a]pyrimidin-4-one]	20.5 nM
CNc1ccn2c(=O)c(-c3ccc(OCC(F)(F)F)cc3)c(C(F)(F)F)nc2n1 [Example 14-1, 8-(Methylamino)-3-(4-(2,2,2-trifluoroethoxy)phenyl)-2-(trifluoromethyl)-4H-pyrimido[1,2-a]pyrimidin-4-one]	40.9 nM
C[S+]([O-])c1ccn2c(=O)c(-c3ccc(OCC(F)(F)F)cc3)c(C(F)(F)F)nc2c1 (stereo not drawn) [Example 15-1, 8-(Methylsulfinyl)-3-(4-(2,2,2-trifluoroethoxy)phenyl)-2-(trifluoromethyl)-4H-pyrido[1,2-a]pyrimidin-4-one]	441 nM
C[S@@+]([O-])c1ccn2c(=O)c(-c3ccc(OCC(F)(F)F)cc3)c(C(F)(F)F)nc2c1 [Example 15-2, 8-((R)-methylsulfinyl)-3-(4-(2,2,2-trifluoroethoxy)phenyl)-2-(trifluoromethyl)-4H-pyrido[1,2-a]pyrimidin-4-one]	562 nM
C[S@+]([O-])c1ccn2c(=O)c(-c3ccc(OCC(F)(F)F)cc3)c(C(F)(F)F)nc2c1 [Example 15-3, 8-((S)-methylsulfinyl)-3-(4-(2,2,2-trifluoroethoxy)phenyl)-2-(trifluoromethyl)-4H-pyrido[1,2-a]pyrimidin-4-one]	235 nM
C[S+]([O-])c1ccn2c(=O)c(-c3cnn(CC(F)(F)C(F)(F)F)c3)c(C(F)(F)F)nc2c1 (stereo not drawn) [Example 15-4, 8-(methylsulfinyl)-3-(1-(2,2,3,3,3-pentafluoropropyl)-1H-pyrazol-4-yl)-2-(trifluoromethyl)-4H-pyrido[1,2-a]pyrimidin-4-one]	712 nM
C[S@+]([O-])c1ccn2c(=O)c(-c3cnn(CC(F)(F)C(F)(F)F)c3)c(C(F)(F)F)nc2c1 [Example 15-5, 8-((S)-methylsulfinyl)-3-(1-(2,2,3,3,3-pentafluoropropyl)-1H-pyrazol-4-yl)-2-(trifluoromethyl)-4H-pyrido[1,2-a]pyrimidin-4-one]	159 nM
C[S@@+]([O-])c1ccn2c(=O)c(-c3cnn(CC(F)(F)C(F)(F)F)c3)c(C(F)(F)F)nc2c1 [Example 15-6, 8-((R)-methylsulfinyl)-3-(1-(2,2,3,3,3-pentafluoropropyl)-1H-pyrazol-4-yl)-2-(trifluoromethyl)-4H-pyrido[1,2-a]pyrimidin-4-one]	173 nM
CC[S@@+]([O-])c1ccn2c(=O)c(-c3ccc(OCC(F)(F)F)cc3)c(C(F)(F)F)nc2c1 [Example 15-8, 8-((R)-ethylsulfinyl)-3-(4-(2,2,2-trifluoroethoxy)phenyl)-2-(trifluoromethyl)-4H-pyrido[1,2-a]pyrimidin-4-one]	185 nM
CC[S@+]([O-])c1ccn2c(=O)c(-c3ccc(OCC(F)(F)F)cc3)c(C(F)(F)F)nc2c1 [Example 15-9, 8-((S)-ethylsulfinyl)-3-(4-(2,2,2-trifluoroethoxy)phenyl)-2-(trifluoromethyl)-4H-pyrido[1,2-a]pyrimidin-4-one]	191 nM
N#CCc1ccn2c(=O)c(-c3cnn(CC(F)(F)C(F)(F)F)c3)c(C(F)(F)F)nc2c1 [Example 16-1, (4-Oxo-3-(1-(2,2,3,3,3-pentafluoropropyl)-1H-pyrazol-4-yl)-2-(trifluoromethyl)-4H-pyrido[1,2-a]pyrimidin-8-yl)acetonitrile]	52.4 nM
NCc1ccn2c(=O)c(-c3cnn(CC(F)(F)C(F)(F)F)c3)c(C(F)(F)F)nc2c1 [Example 16-2, 8-(aminomethyl)-3-(1-(2,2,3,3,3-pentafluoropropyl)-1H-pyrazol-4-yl)-2-(trifluoromethyl)-4H-pyrido[1,2-a]pyrimidin-4-one]	137 nM
CSCOc1ccn2c(=O)c(-c3ccc(OCC(F)(F)F)cc3)c(C(F)(F)F)nc2c1 [Example 17-1, 8-((Methylsulfanyl)methoxy)-3-(4-(2,2,2-trifluoroethoxy)phenyl)-2-(trifluoromethyl)-4H-pyrido[1,2-a]pyrimidin-4-one]	317 nM
O=c1c(-c2ccc(OCC(F)(F)F)cc2)c(C(F)(F)F)nc2cc(OCF)ccn12 [Example 17-2, 8-(fluoromethoxy)-3-(4-(2,2,2-trifluoroethoxy)phenyl)-2-(trifluoromethyl)-4H-pyrido[1,2-a]pyrimidin-4-one]	48.6 nM
CS(=O)(=O)c1ccn2c(=O)c(-c3ccc(OCC(F)(F)F)cc3)c(C(F)(F)F)nc2c1 [Example 19, 8-(Methylsulfonyl)-3-(4-(2,2,2-trifluoroethoxy)phenyl)-2-(trifluoromethyl)-4H-pyrido[1,2-a]pyrimidin-4-one]	10100 nM
O=c1c(-c2ccc(OCC(F)(F)F)nc2)c(C(F)(F)F)nc2ccccn12 [Example 20, 3-(6-(2,2,2-Trifluoroethoxy)-3-pyridinyl)-2-(trifluoromethyl)-4H-pyrido[1,2-a]pyrimidin-4-one]	109 nM
COc1ccn2c(=O)c(-c3ccc(OCC#N)cc3)c(C(F)(F)F)nc2c1 [Example 21, (4-(8-Methoxy-4-oxo-2-(trifluoromethyl)-4H-pyrido[1,2-a]pyrimidin-3-yl)phenoxy)acetonitrile]	5.8 nM
COc1ccn2c(=O)c(-c3ccc(OCC(F)(F)C(F)(F)F)cc3)c(C(F)(F)F)nc2c1 [Example 22, 8-Methoxy-3-(4-(2,2,3,3,3-pentafluoropropoxy)phenyl)-2-(trifluoromethyl)-4H-pyrido[1,2-a]pyrimidin-4-one]	4 nM
CN(C(=O)F)c1ccn2c(=O)c(-c3cnn(CC(F)(F)C(F)(F)F)c3)c(C(F)(F)F)nc2c1 [Example 23, Methyl(4-oxo-3-(1-(2,2,3,3,3-pentafluoropropyl)-1H-pyrazol-4-yl)-2-(trifluoromethyl)-4H-pyrido[1,2-a]pyrimidin-8-yl)carbamyl fluoride]	1.6 nM
